Entries after “also recorded” stand apart in the source; their conditions may differ.
Key:
Assay type in all cases: in vivo, rat (male Sprague Dawley)
[1] = system: gastric damage due to stress induced by restricted water-immersion; assay: Gastric damage due to stress induced by restricted water-immersion (single administration); settings: for lesion index (% to control): 10 rats
Protocol: (§1) Male Sprague Dawley rats weighing from 240 to 280 g were used as experimental animals.
(§2) As H2 B, famotidine, and as gastrin receptor antagonist, L-365,260 described in Example 281 of Japanese Patent Publication (KOKAI) 63-238069 (EP 167,919; EP 284,256; U.S. Pat. No. 4,820,834; U.S. Pat. No. 5,004,741)), were used. […] For administration, a suspension of 10 mg famotidine or L-365,260 in 1 ml vehicle (0.5% methyl cellulose solution) was prepared. The combined formulation is a mixture of an equal amount of each suspension.
(§3) A previously determined dose of each test compound (1.0 ml or 3.0 ml/kg) was charged in a syringe and administered orally to a rat directly into gaster using a stainless probe needle (.phi.1.2×L 80 mm) equipped to the syringe.
(1) Gastric damage due to stress induced by restricted water-immersion (single administration test)
Twenty four hour starved (ad libitum for water) male Sprague Dawley rats (270-290 g) were orally administered with a test compound and, 30 min later, were loaded with stress in the following manner. Rats were placed in a stress cage (Natsume Seisakusyo) and immersed in water tank at 23° C. upto the level of pectoral processus xiphoideus [Takagi et al, Chem. Pharm. Bull (Tokyo) 12, 465-472 (1964)]. Seven hours later, animals were withdrawn from the water tank and killed with ether. The gaster was extracted and 1% formalin solution (13 ml) was injected in it. […] The gaster was observed under anatomic microscope (x10) and longer diameter (mm) of each damages (bleeding erosion) appearing around fundic glands was measured.

gastric acid secretion = assay: Basic gastric acid secretion after interruption following continuous administration (pylorus ligation); settings: for basic gastric acid secretion (in words): P<0.05
Protocol: as §1, §2, §3
(§4) B. Continuous administration test
(§5) (A) A group consists of animals that received vehicle (0.5% methyl cellulose solution, 1 ml/kg).
(§6) (B) A group consists of animals that received famotidine (a suspension of 10 mg famotidine in 1 ml 0.5% methyl cellulose) continuously at a dose of 10 or 30 mg/kg/day.
(§7) (C) A group consists of animals that received L-365,260 continuously at a dose of 10 mg/kg/day.
(§8) (D) A group consists of animals that received a combined formulation of famotidine and L-365,260 at a dose of 10 mg/kg/day for each compound.
(2) Basic gastric acid secretion after interruption following the continuous administration of famotidine
To a rat bred normally was administered continuously famotidine at a dose of 10 or 30 mg/kg/day for a week. After the final administration, the basis gastric acid secretion (total acid excretion) was determined according to the pylorus ligation method (4-hour-method) [Shay, H. et al., Gastroenterology, 5: 43-61 (1945)]. The determination was carried out following the final administration, […], […]
Thus, rats were subjected to laparotomy under ether anesthetization and pylorus was ligated. Four hours later, gaster was extracted under ether anaesthetization and the accumulated gastric juice was collected. After centrifugation (3000 rpm, 10 min), pH and acidity of gastric juice was determined. The acidity was measured upto pH 7.0 with 0.1N NaOH. The total acid secretion (μEq/4 hr) was calculated by multiplying acidity by the volume of juice for each animal.

[2] = system: aspirin-induced gastric mucosa damage; assay: Aspirin-induced gastric mucosa damage following continuous administration; settings: for lesion index (mm^2): 10 mg/kg p.o., 7 days, aspirin 200 mg/kg after two-day interruption; for aspirin-induced gastric mucosa damage (in words): continuous administration, two-day interruption
Protocol: as §1, §2, §3, §4, §5, §6, §7, §8
(3) Aspirin-induced gastric mucosa damage following a continuous administration of famotidine
After two-day-interruption following a continuous administration of famotidine, aspirin (200 mg/kg) was administered to rats orally. Seven hours later, gaster was extracted under ether anesthetization and subjected to formalin treatment with 1% formalin solution. The length (mm) of gastric mucosa damage appearing around fundic glands was then measured. Lesion index was calculated by adding all the measurements. Rats had been starved for 24 hr before aspirin administration (ad libitum for water).

[3] = day 2 after 7-day treatment, 10 mg/kg/day (Table 6)
[4] = day 3 after 7-day treatment, 10 mg/kg/day (Table 6)
[5] = immediately after 7 days, 10 mg/kg/day
[6] = immediately after 7 days, 30 mg/kg/day

Which results are given for `NC(N)=Nc1nc(CSCCC(N)=NS(N)(=O)=O)cs1` [Famotidine, famotidine]?
lesion index (% to control) ([1]; 1 mg/kg p.o.): 33.4 ± 5.5 % to control; inhibition of appearance of stress gastric damage (in words) ([1]; 3 mg/kg): inhibited the appearance significantly; lesion index (% to control) ([1]; 3 mg/kg p.o.): 33.4 ± 5.5 % to control; basic gastric acid secretion (in words) (gastric acid secretion; 10 mg/kg/day, after a 48-hour interruption): increased significantly; basic gastric acid secretion (in words) (gastric acid secretion; 10 mg/kg/day, immediately after interrupting): inhibited significantly; basic gastric acid secretion (in words) (gastric acid secretion; 30 mg/kg/day, after a 4-day interruption): increased significantly; basic gastric acid secretion (in words) (gastric acid secretion; 30 mg/kg/day, immediately after interrupting): inhibited significantly; increase in the basic acid secretion, acid rebound (in words) (gastric acid secretion; 2nd day after interruption following continuous administration): An increase in the basic acid secretion (acid rebound) was observed; inhibition (%) of total acid secretion (gastric acid secretion; 24 hr after 7-day treatment, 10 mg/kg/day): -38.3%; total acid secretion (gastric acid secretion; 24 hr after 7-day treatment, 10 mg/kg/day (Table 4)): 821.0 ± 214.2 μEq/4 hr; inhibition (%) of total acid secretion (gastric acid secretion; 48 hr after 7-day treatment, 10 mg/kg/day): -105.7%; total acid secretion (gastric acid secretion; 48 hr after 7-day treatment, 10 mg/kg/day (Table 4)): 948.9 ± 187.5 μEq/4 hr; total acid secretion (gastric acid secretion; [3]): 788.4 ± 217.7 μEq/4 hr; total acid secretion (gastric acid secretion; [4]): 682.4 ± 132.6 μEq/4 hr; inhibition (%) of total acid secretion (gastric acid secretion; day 3 after 7-day treatment, 30 mg/kg/day): -45.3%; inhibition (%) of total acid secretion (gastric acid secretion; day 4 after 7-day treatment, 30 mg/kg/day): -44.2%; inhibition (%) of total acid secretion (gastric acid secretion; [5]): 61.6%; total acid secretion (gastric acid secretion; [5]): 151.8 ± 29.8 μEg/49 hr; inhibition (%) of total acid secretion (gastric acid secretion; [6]): 59.9%; total acid secretion (gastric acid secretion; [6]): 158.4 ± 54.9 μEg/49 hr; lesion index (mm^2) [2]: 67.0 ± 14.2 mm^2; aspirin-induced gastric mucosa damage (in words) [2]: the condition deteriorated significantly; also recorded: the ulcer index got worse significantly on the 2nd day after interruption

For `Cc1cccc(NC(=O)N[C@@H]2N=C(c3ccccc3)c3ccccc3N(C)C2=O)c1` [L-365,260], which “lesion index (% to control)” value ([1]; 1 mg/kg p.o.) is on record?
The value was 130.4 ± 20.6 % to control.

And the “lesion index (% to control)” value ([1]; 3 mg/kg p.o.)?
Its value is 84.7 ± 17.4 % to control.

What about the “inhibition of appearance of stress gastric damage (in words)” value ([1]; at either dose (1 or 3 mg/kg)) of the same compound?
The value was “does not inhibit the appearance of stress gastric damage”.

And the “acid excretion after continuous administration alone (in words)” value (gastric acid secretion; alone for a week)?
The value was “did not differed from those obtained in control group”.

And the total acid secretion (gastric acid secretion; [3])?
Its total acid secretion is 631.4 ± 147.9 μEq/4 hr.

What about the total acid secretion (gastric acid secretion; [4]) of the same compound?
The total acid secretion was 681.0 ± 142.9 μEq/4 hr.

What about the “lesion index (mm^2)” value [2] of the same compound?
The value was 43.2 ± 13.7 mm^2.

What about the “aspirin-induced gastric mucosa damage (in words)” value [2] of the same compound?
Its value is “the condition seemed to have tendency to deteriorate, but it is not significant”.
